Drawing on PubChem BioAssay AID467 (The Scripps Research Institute Molecular Screening Center, 2006), this text covers EC50 for 90 molecules.

For orientation: EC50 means the concentration at which the effect is half-maximal.

Molecules are shown by their SMILES. The source made the active and inactive calls. No rule for the calls is given here.

The test system of this experiment is parental cell line counter screen, S1P1 agonist assay readout. Kind of experiment: signal in parental cells, counter-screen for S1P1 agonist project (AID 467).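 Also: agonist potency measured against forskolin stimulation plus an EC20 level of SEW2871.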 On the technique in general: A counterscreen serves to expose hits that act by an unwanted route or on another target.
Take `O=C(CSc1nnc(-c2c[nH]c3ccccc23)o1)N1c2ccccc2CCc2ccccc21`: the EC50 was > 95.1 µM (inactive).

For `O=C1CC(N2CCN(C/C=C/c3ccccc3)CC2)C(=O)N1CCc1ccccc1` (stereo not given), the EC50 was > 30 µM (inactive).

In the case of `Nc1ccc(N2CCCCCC2)cc1`, the EC50 is 9.89 µM.

On to `Fc1ccc(COc2ccc(/C=N/n3cnnc3)cc2)cc1`, for which the EC50 was > 95.1 µM (inactive).

For the molecule `O=C(CSCC(=O)N1CCCCC1)Nc1nc(-c2cccs2)cs1`, the EC50 is > 30 µM (inactive).

As for `CCC(C)OC(=O)c1[nH]c2c(c1C)C(=O)CC(c1ccc(N(C)C)cc1)C2` (stereo not given), the EC50 was > 30 µM (inactive).

As to `c1ccc(N2CCN(c3ncnc4c3oc3ccccc34)CC2)cc1`, the EC50 was > 95.1 µM (inactive).

As for `Cc1cc(C(=O)CSc2nnc(-c3ccncc3)n2-c2ccccc2)c(C)n1C`, the EC50 is > 95.1 µM (inactive).

Take `CCSc1nnc(NC(=O)C(Cc2ccccc2)n2cccc2)s1` (stereo not given): the EC50 was > 95.1 µM (inactive).

Take `CN(C)S(=O)(=O)c1ccc(C(=O)Nc2nc(-c3cccs3)cs2)cc1`: the EC50 was > 95.1 µM (inactive).

In the case of `N#CCCS(=O)(=O)c1nnnn1-c1ccccc1`, the EC50 was 1.34 µM.

On to `C=C(C)COc1ccc(-c2nc(N)nc(C)c2Oc2ccccc2OC)c(O)c1`, for which the EC50 was > 10 µM (inactive).

On to `Cn1c(C(=O)N2CCCc3ccccc32)cc2sccc21`, for which the EC50 was > 95.1 µM (inactive).

With `COc1ccc(-c2noc(-c3cccc(OC)c3OC)n2)cc1OC`, the EC50 is > 95.1 µM (inactive).

Regarding `COc1ccc(CCNc2ncnc3c2oc2ccccc23)cc1OC`, the EC50 is 5.31 µM.

With `c1ccc(CNc2ncnc3ccccc23)cc1`, the EC50 is 30.1 µM (inactive).

In the case of `O=S1(=O)C=C(Sc2nc3cc(Cl)ccc3o2)c2ccccc21`, the EC50 was 6.35 µM.

As for `Cc1cccc(N2CCN(C(=O)C3CCCN(S(=O)(=O)c4cccc5cccnc45)C3)CC2)c1C` (stereo not given), the EC50 is 28.7 µM (inactive).

As to `Clc1ccc(OCCN2CCN(c3ncnc4sccc34)CC2)cc1`, the EC50 is 2.63 µM.

On to `COc1ccc(N=c2scc(-c3ccc(S(=O)(=O)N4CCOCC4)cc3)n2CCCO)cc1`, for which the EC50 is > 30 µM (inactive).

Turning to `CC(C)OCCCNc1ncnc2c1[nH]c1ccc(F)cc12`, the EC50 was 24.4 µM (inactive).

Regarding `CCN(C1CCCCC1)S(=O)(=O)c1ccc(S(=O)(=O)NCc2ccncc2)cc1`, the EC50 was 76.5 µM (inactive).

As to `Cc1cccc(OCCCCc2c(C)n[nH]c2C)c1C`, the EC50 is 29.3 µM (inactive).

For `COc1ccc(NC(=O)c2cnn3c(C(F)(F)F)cc(-c4ccco4)nc23)cc1OC`, the EC50 was > 95.1 µM (inactive).

With `CCOc1ccc(-c2nc(CSCC(=O)N3CCN(c4cccc(OC)c4)CC3)c(C)o2)cc1`, the EC50 was 19.4 µM (inactive).

As to `Clc1ccc(-c2nc3nc4ccccc4nc3n2Cc2ccco2)cc1`, the EC50 is > 95.1 µM (inactive).

`CCCC(=O)Nc1ccc(-c2nc3cc(C)c(C)cc3o2)cc1`: the EC50 was > 95.1 µM (inactive).

Regarding `Cc1cc(C(=O)CSc2nnnn2C)c(C)n1-c1cccc(F)c1`, the EC50 was > 95.1 µM (inactive).

As to `CCOC(=O)CN(C(=O)CSc1nnc(-c2cccc(OC)c2)o1)c1ccc(F)cc1`, the EC50 was > 95.1 µM (inactive).

Take `CCn1c(SCC(=O)Nc2nc3ccc(C)cc3s2)nc2c(c1=O)SC(C)C2` (stereo not given): the EC50 was > 10 µM (inactive).

Take `CCc1oc2ccccc2c1C(=O)c1cc(Br)c(O)c(Br)c1`: the EC50 is 13.5 µM (inactive).

As to `COC(=O)CC1SC(=O)NC1=Nc1ccccc1` (stereo not given), the EC50 is > 95.1 µM (inactive).

Take `Cc1nc(NC(C)c2ccccc2)c2oc3ccccc3c2n1` (stereo not given): the EC50 is 52.9 µM (inactive).

On to `C=CCn1c(C)cc(C(=O)CSc2nc3ccccc3o2)c1C`, for which the EC50 was > 30 µM (inactive).

Regarding `O=S(=O)(Nc1ccc2c(c1)OCCO2)c1ccc2oc3ccccc3c2c1`, the EC50 was 16.4 µM (inactive).

With `Cc1cccc(-c2nc(CSCC(=O)N3CCN(Cc4ccc5c(c4)OCO5)CC3)c(C)o2)c1`, the EC50 is 30.5 µM (inactive).

For `COc1ccc2ncn(-c3ccccc3)c2c1`, the EC50 was > 95.1 µM (inactive).

For `CC1=C(C(=O)OCc2ccc3c(c2)OCO3)C(c2ccc(F)cc2)NC(=O)N1` (stereo not given), the EC50 is 2.3 µM.

Take `CCOC(=O)N1CCC(NC(=O)C2CCCN(Cc3nc(-c4cccc(Cl)c4)oc3C)C2)CC1` (stereo not given): the EC50 was > 95.1 µM (inactive).

In the case of `Cc1csc(NC(=O)C(Cc2ccccc2)n2cccc2)n1` (stereo not given), the EC50 was > 30 µM (inactive).

`COc1ccc2[nH]c(=O)c3c(c2c1)OC(C)(C)C=C3`: the EC50 is 6.75 µM.

For `COc1ccc2c(c1)CCc1c(C(=O)NC3CCCCC3)noc1-2`, the EC50 is > 95.1 µM (inactive).

Take `CCC(=NC(C)c1ccccc1)c1c(O)n(C)c(=O)n(C)c1=O` (stereo not given): the EC50 is > 30 µM (inactive).

For `O=C(c1cc(-c2ccco2)on1)N1CCN(C(c2ccccc2)c2ccccc2)CC1`, the EC50 was > 95.1 µM (inactive).

Consider `Cc1cc(C(=O)CSc2nc3ccccc3c(=O)n2C)c(C)n1Cc1ccc2c(c1)OCO2`, for which the EC50 is 54.9 µM (inactive).

On to `CCOc1ccc(-c2nnc(-c3cccs3)o2)cc1OCC`, for which the EC50 is > 95.1 µM (inactive).

For the molecule `CCOc1ccc(-c2noc(-c3cccnc3)n2)cc1OC`, the EC50 was > 95.1 µM (inactive).

As for `O=C(CSC1=NCCS1)Nc1ccnc2ccccc12`, the EC50 is 11.1 µM (inactive).

Turning to `CCOC(=O)/C=C/S(=O)(=O)c1ccc(NC(C)=O)cc1`, the EC50 was 3.96 µM.

For `CCOc1ccc(C(=O)Nc2c(C(N)=O)oc3ccccc23)cc1`, the EC50 was > 95.1 µM (inactive).

On to `COc1ccc(N2CCn3c2nc2c3c(=O)n(CCCc3ccccc3)c(=O)n2C)c(OC)c1`, for which the EC50 is > 10 µM (inactive).

Turning to `O=C(Nc1ccc(S(=O)(=O)NCc2ccco2)cc1)c1ccc2ccccc2n1`, the EC50 is > 95.1 µM (inactive).

For `Cc1ccccc1OCCCCc1c(C)n[nH]c1C`, the EC50 was > 30 µM (inactive).

Take `Cc1nc2sc(-c3ccccc3)cc2c(=O)n1-n1cccc1`: the EC50 is > 95.1 µM (inactive).

In the case of `Cc1ccc(N2C(=O)c3cccc4c(N5CCN(C)CC5)ccc(c34)C2=O)c2cccnc12`, the EC50 is > 95.1 µM (inactive).

Consider `CCN(CC)C(=O)CSC(=Nc1ccccc1F)NC#N`, for which the EC50 was > 95.1 µM (inactive).

As to `O=C(CSc1nnc(-c2ccc(Cl)cc2)n1Cc1ccco1)c1cccs1`, the EC50 was > 30 µM (inactive).

Consider `CCC(=NCc1ccc2c(c1)OCO2)c1c(O)n(C2CCCCC2)c(=O)[nH]c1=O`, for which the EC50 is 26.6 µM (inactive).

As for `Cc1ccc(-c2nc(CSCC(=O)N3CCN(c4ccccn4)CC3)c(C)o2)cc1`, the EC50 was > 30 µM (inactive).

On to `CCOC(=O)c1sc2nc(NC(=O)C(C)(C)C)sc2c1C`, for which the EC50 is > 10 µM (inactive).

In the case of `CCCc1cc(C(=O)N2CCN(C(c3ccccc3)c3ccccc3)CC2)no1`, the EC50 was > 95.1 µM (inactive).

Take `CC(C)[C@H](NC(=O)OC(C)(C)C)c1nnc(SCC(=O)Nc2ccc(Br)cc2)o1`: the EC50 is > 30 µM (inactive).

`Cc1nn(Cc2ccccc2)c(C)c1C(=O)OCC(=O)c1cc(C)n(C2CC2)c1C`: the EC50 was > 30 µM (inactive).

As for `Cc1cc(N2CCOCC2)nc(NCc2ccccc2)n1`, the EC50 is 71.3 µM (inactive).

Consider `FC(F)(F)c1ccc(N2CCN(c3cc(-c4ccccc4)nc4ncnn34)CC2)nc1`, for which the EC50 was > 95.1 µM (inactive).

Take `COc1ccccc1-c1cc(C(=O)Nc2ccccc2SC)no1`: the EC50 is > 95.1 µM (inactive).

With `CC(C)(C)OC(=O)N[C@@H](Cc1ccccc1)c1nnc(S(=O)(=O)Cc2ccccc2)o1`, the EC50 was 1.51 µM.

Consider `O=C(CSc1ncnc2c1oc1ccccc12)N1CCCc2ccccc21`, for which the EC50 was > 10 µM (inactive).

In the case of `COc1ccc(-c2cn3c(C)c(C(=O)N4CCCc5ccccc54)sc3n2)cc1`, the EC50 is > 95.1 µM (inactive).

As to `CCCC(=O)N1CCN(c2ccc(NC(=O)c3cc4ccccc4o3)cc2Cl)CC1`, the EC50 is 10.8 µM (inactive).

`CCc1nnc(NC(=O)C2CCCCC2)s1`: the EC50 is > 95.1 µM (inactive).

As to `CCCCOc1ccc(S(=O)(=O)Nc2cccnc2)cc1`, the EC50 was > 95.1 µM (inactive).

In the case of `COc1ccc(-c2nc(-c3ccc(NC(=O)c4ccncc4)cc3)no2)cc1OC`, the EC50 was > 30 µM (inactive).

In the case of `COc1cc(CSc2nnnn2-c2ccc(C)cc2)cc(OC)c1OC`, the EC50 is > 30 µM (inactive).

With `COc1ccc(N2C(=O)CC(Sc3ncn[nH]3)C2=O)c(OC)c1` (stereo not given), the EC50 was 4.91 µM.

As for `CCn1c(-c2cccc(Cl)c2)n[nH]c1=S`, the EC50 is > 95.1 µM (inactive).

Turning to `CCOC(=O)c1ccc2nc(NC(=O)c3ccco3)sc2c1`, the EC50 was > 95.1 µM (inactive).

As to `COc1cc(-c2noc(C3CCCN(S(=O)(=O)c4cccc(Cl)c4)C3)n2)cc(OC)c1OC` (stereo not given), the EC50 was > 95.1 µM (inactive).

On to `CCCCCn1c(=O)c(C(=O)NCc2ccncc2)c(O)c2ccccc21`, for which the EC50 was 30.8 µM (inactive).

Consider `CCc1ccc(N(CC)c2ncnc3nc[nH]c23)cc1`, for which the EC50 was > 95.1 µM (inactive).

In the case of `CC(C)OC(=O)CSc1nc(N)c(C#N)c(-c2cccs2)c1C#N`, the EC50 is > 95.1 µM (inactive).

As to `O=c1[nH]nc(Sc2ncnc3sccc23)n1CCc1ccccc1`, the EC50 is 21.1 µM (inactive).

With `CCOC(=O)c1cnc(-n2nc(C)cc2C)nc1NC1CCCCC1`, the EC50 was 5.93 µM.

Consider `Cc1nnc(SC(=O)N2c3ccccc3Sc3ccccc32)s1`, for which the EC50 was 3.42 µM.

On to `CN1CCN(C(=O)CSc2nc(-c3cccs3)cc(-c3cccs3)c2C#N)CC1`, for which the EC50 is 19.7 µM (inactive).

In the case of `Cc1ccc2nc(C(F)(F)F)c(C#N)c(N)c2c1`, the EC50 is 6.47 µM.

Turning to `Cc1nnc(SCC(=O)N2CCC(c3noc4ccc(F)cc34)CC2)s1`, the EC50 was > 95.1 µM (inactive).

Regarding `COc1ccc(-n2c(C)cc(C(=O)COC(=O)Cn3cnc4ccccc43)c2C)cc1`, the EC50 was > 30 µM (inactive).

As to `CCOC(=O)c1ccc2c(c1)C(=O)N(C1CCCCC1)C2=O`, the EC50 is > 95.1 µM (inactive).

With `CC1=CC(C)(C)Nc2ccc(OC(=O)c3ccco3)cc21`, the EC50 is > 3 µM (inactive).
